For experiment [1], the species on record is Rattus norvegicus. In words: Relaxation of rat aorta smooth muscle. The format is functional, Muscle tissue.
The species named for experiment [2] is Rattus norvegicus. Kind of experiment: Relaxation of rat aorta smooth muscle precontracted with 30 mM KCl (Negative logarithm of molar concentration required). Type of experiment: functional, organism-based. The conditions noted are these: Muscle tissue.

Here are results for 15 compounds from ChEMBL document CHEMBL1151578, “Benzopyran-4-carboxamide K+ channel openers” (Bioorg Med Chem Lett, 1993).

Take `CC(C)NC(=O)C1=CC(C)(C)Oc2ccc([N+](=O)[O-])cc21`: in the experiment filed under Rattus norvegicus [1], the Intrinsic activity came to 77.6%. The compound also had an EC50 in the experiment filed under Rattus norvegicus [2] of 0.186 µM. The matching figures for `CC1(C)C=C(C(=O)NCCO)c2cc([N+](=O)[O-])ccc2O1`: 71.8% and 0.182 µM. The matching figures for `CC1(C)C=C(C(=O)NCCF)c2cc([N+](=O)[O-])ccc2O1`: 81.6% and 0.0204 µM. The matching figures for `C#CCNC(=O)C1=CC(C)(C)Oc2ccc([N+](=O)[O-])cc21`: 80.2% and 0.00794 µM.

Take `CC1(C)C=C(C(=O)NCCC#N)c2cc([N+](=O)[O-])ccc2O1`: the Intrinsic activity in the experiment listed under Rattus norvegicus [1] was found to be 73.1%. With `CCNC(=O)C1=CC(C)(C)Oc2ccc([N+](=O)[O-])cc21`, in the experiment listed under Rattus norvegicus [1], the Intrinsic activity was found to be 80.5%. This compound also gave an EC50 in the experiment listed under Rattus norvegicus [2] of 0.00457 µM.

Turning to `CCCNC(=O)C1=CC(C)(C)Oc2ccc([N+](=O)[O-])cc21`, the Intrinsic activity in the experiment listed under Rattus norvegicus [1] stood at 74.1%. It took 0.00575 µM to reach a half-maximal effect in the experiment filed under Rattus norvegicus [2] (EC50).

With `CNC(=O)C1=CC(C)(C)Oc2ccc([N+](=O)[O-])cc21`, the Intrinsic activity in the experiment listed under Rattus norvegicus [1] came out at 61%. The compound `CC1(C)C=C(C(=O)NCC2CC2)c2cc([N+](=O)[O-])ccc2O1` registered an Intrinsic activity in the experiment filed under Rattus norvegicus [1] of 89.3%. Further, the EC50 in the experiment filed under Rattus norvegicus [2] was 0.00661 µM. The matching figures for `CCCCNC(=O)C1=CC(C)(C)Oc2ccc([N+](=O)[O-])cc21`: 83.2% and 0.0219 µM. In the experiment filed under Rattus norvegicus [1], `CNC(=O)C1=CC(C)(C)Oc2ccc(C#N)cc21` had an Intrinsic activity of 66.6%. `CC1(C)C=C(C(N)=O)c2cc([N+](=O)[O-])ccc2O1` came in with an Intrinsic activity in the experiment listed under Rattus norvegicus [1] of 79.8%. Also, in the experiment filed under Rattus norvegicus [2], a half-maximal response (EC50) required 0.363 µM.

Consider `CC1(C)C=C(C(=O)NC2CC2)c2cc([N+](=O)[O-])ccc2O1`, for which the Intrinsic activity in the experiment listed under Rattus norvegicus [1] worked out at 78%. Further, the EC50 in the experiment listed under Rattus norvegicus [2] is 0.0324 µM. The matching figures for `CC1(C)Oc2ccc(C#N)cc2[C@H](N2CCCC2=O)[C@H]1O` (single isomer, unassigned) [(-)-CROMAKALIM]: 74.7% and 0.17 µM. Consider `CC(N/C(=N\C#N)Nc1ccncc1)C(C)(C)C` (stereo unspecified) [PINACIDIL ANHYDROUS], for which, in the experiment filed under Rattus norvegicus [1], the Intrinsic activity is recorded as 91.9%.

In general, EC50 refers to the midpoint of the concentration-response curve. Low values mean greater potency, high ones weaker potency.
